Measurements: patent US7902219B2, “2-benzoylimidazopyridine derivatives, preparation and therapeutic use thereof” (Sanofi-Aventis, priority 2006, dated 2011)

How the values were obtained:
human NOT receptor = test: Binding to the human NOT receptor by SPR (surface plasmon resonance, Biacore S51); conditions: immobilized GST-NOT (NOT-FL) and His-Thr-NOT 329-598, 3.75 to 0.1 μM, 4° C.
Experimental: Evaluation of the Binding to the Human NOT Receptor The direct binding between compounds of the invention and the human NOT receptor was evaluated using the SPR (surface plasmon resonance) technique. In this test, the protein is immobilized covalently on the matrix and the test molecule is injected into the chamber containing the sensor chip. The signal is directly proportional to the amount of product bound to the protein. The binding tests were performed in a Biacore S51 machine (Biacore Inc., Piscataway N.J.). The entire GST-NOT protein (NOT-FL) was supplied by Invitrogen (PV3265). The domain for binding to the NOT ligand (His-Thr-NOT 329-598) was expressed and purified as described in Nature 423, 555-560. The two proteins, diluted to a concentration of 20 μg/ml in pH 5.0 acetate buffer containing 5 mM of DTT, were immobilized on a surface of carboxymethyl 5′ dextran (CM5 sensor chip, Biacore Inc.) via amine coupling according to the protocol recommended by Biacore, eluting with an HBS-N buffer (10 mM HEPES, 0.15 M NaCl, 3 mM EDTA, pH 7.4). Approximately 10 000-15 000 resonance units (RU) of the proteins are captured on the surface of the sensor chip CM5. […] Each concentration of product is injected at 4° C. for 1 minute at 30 μl/min. The dissociation was recorded for 5 minutes without any other surface regeneration procedure. […]

murine Nurr1 receptor = biological target: T1, murine Nurr1 receptor (Mus musculus, UniProt Q06219); test: In vitro activity on N2A cells (NBRE-luciferase reporter); format: cell-based; conditions: N2A-8NBRE-luciferase cells, products incubated 24 hours
T1 construct: endogenously expressing the murine Nurr1 receptor; host or cells: Neuro-2A (N2A) mouse neuroblastoma cells stably transfected with 8NBRE-luciferase
Experimental: Evaluation of the in vitro Activity on N2A Cells
The tests consisted in evaluating the in vitro activity of the compounds of the invention on a cell line (N2A) endogenously expressing the murine Nurr1 receptor and stably transfected with the NOT binding response element (NBRE) coupled to the luciferase reporter gene. The EC50 values are between 0.01 and 1000 nM. The tests were performed according to the procedure described hereinbelow.
The cell line Neuro-2A is obtained from a standard commercial source (ATCC). The clone Neuro-2A was obtained from a spontaneous tumor originating from a strain of albino mice A by R. J Klebe et al. This line Neuro-2A is then stably transfected with 8NBRE-luciferase. The N2A-8NBRE cells are cultured to the point of confluence in 75 cm^2 culture flasks containing DMEM supplemented with 10% fetal calf serum, 4.5 g/L of glucose and 0.4 mg/ml of geneticin. After culturing for one week, the cells are recovered with 0.25% trypsin for 30 seconds and then resuspended in DMEM without phenol red, containing 4.5 g/L of glucose and 10% Hyclone defatted serum, and placed in white, transparent-based 96-well plates. The cells are deposited at a rate of 60 000 per well in 75 μL for 24 hours before adding the products. The products are applied in 25 μL and incubated for a further 24 hours. On the day of measurement, an equivalent volume (100 μL) of Steadylite is added to each well, and the wells are then left for 30 minutes to obtain complete lysis of the cells and maximum production of the signal. The plates are then measured in a microplate luminescence counter, after having been sealed with an adhesive film. The products are prepared in the form of a 10^−2 M stock solution, and then diluted in 100% of DMSO. Each concentration of product is prediluted in culture medium before incubation with the cells thus containing 0.625% final of DMSO.

T1 sequence (Q06219 whole entry): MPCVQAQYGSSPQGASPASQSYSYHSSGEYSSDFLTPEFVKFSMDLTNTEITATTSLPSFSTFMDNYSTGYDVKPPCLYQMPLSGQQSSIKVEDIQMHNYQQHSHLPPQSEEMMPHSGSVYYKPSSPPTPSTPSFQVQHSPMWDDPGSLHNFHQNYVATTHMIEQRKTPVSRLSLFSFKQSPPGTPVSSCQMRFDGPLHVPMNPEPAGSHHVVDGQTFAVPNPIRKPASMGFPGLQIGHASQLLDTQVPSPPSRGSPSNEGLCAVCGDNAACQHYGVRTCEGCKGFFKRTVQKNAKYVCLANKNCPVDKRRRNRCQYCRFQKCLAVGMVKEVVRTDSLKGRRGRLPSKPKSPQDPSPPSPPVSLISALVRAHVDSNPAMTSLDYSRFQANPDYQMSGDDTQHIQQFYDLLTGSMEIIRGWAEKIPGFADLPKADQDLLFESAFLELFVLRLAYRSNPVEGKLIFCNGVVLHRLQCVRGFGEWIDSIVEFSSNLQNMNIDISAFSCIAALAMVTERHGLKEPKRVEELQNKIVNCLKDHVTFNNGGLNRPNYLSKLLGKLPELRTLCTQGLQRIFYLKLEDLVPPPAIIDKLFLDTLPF

| affinity (classified by maximum binding level and kinetic parameters of binding to the immobilized protein) (human NOT receptor) | EC50 (murine Nurr1 receptor) | Structure (SMILES) |
| --- | --- | --- |
| moderate affinity | 0.3 nM | Cc1ccc2nc(C(=O)c3ccccc3)cn2c1.Cl [Compound 1, (6-Methylimidazo[1,2-a]pyridin-2-yl)(phenyl)methanone hydrochloride (1:1)] |
| moderate affinity | 0.2 nM | Br.CC(C)(O)c1ccc2nc(C(=O)c3ccccc3)cn2c1 [Compound 3, [6-(1-Hydroxy-1-methylethyl)imidazo[1,2-a]pyridin-2-yl] (phenyl)-methanone hydrobromide (1:1)] |
|  | 0.02 nM | O=C(c1ccccc1)c1cn2cc(-c3ccccc3)ccc2n1 [Compound 6, Phenyl(6-phenylimidazo[1,2-a]pyridin-2-yl)methanone] |
